This note sets out measurements from patent US20240270751A1, “Pyrazolopyridinone Compounds” (BeiGene Ltd., priority 2021, published 2024).

Structures are written as SMILES.

The target in test [1] is DGKα (Homo sapiens (Human), UniProt P23743). Nature of the test: Biochemical DGK IC50 assay, DGKα ADP-Glo assay. Conditions: 7.5 nM enzyme, 140 μM ATP, 80 μM DAG. The method in brief:
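ADP-Glo read-out with full-length DGKα on DAG/PS lipid micelle substrate in 25 mM HEPES pH 7.0, 0.5 mM EDTA, 160 mM octyl β-D-glucopyranoside. Compound final concentrations spanned 1.55˜10000 nM or 23.3˜150000 nM.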
For orientation: In ADP-Glo the light output rises with the ADP produced.

Test [2] has as its target DGKζ (Homo sapiens (Human), UniProt Q13574). Nature of the test: Biochemical DGK IC50 assay, DGKζ ADP-Glo assay. To be noted: 0.5 nM enzyme, 140 μM ATP, 80 μM DAG; read-out: DGKζ ADP-Glo assay IC50. The method in brief: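 Full-length human DGKζ, His-TEV tagged and purified from baculovirus-infected Sf9 cells, assayed by ADP-Glo with DAG/PS lipid micelle substrate prepared in 25 mM HEPES pH 7.0 with octyl glucoside. Final compound concentrations spanned 1.55–10000 nM or 23.3–150000 nM.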

DGKζ, sequence (Q13574 other isoform, or with tags, fused parts or gaps): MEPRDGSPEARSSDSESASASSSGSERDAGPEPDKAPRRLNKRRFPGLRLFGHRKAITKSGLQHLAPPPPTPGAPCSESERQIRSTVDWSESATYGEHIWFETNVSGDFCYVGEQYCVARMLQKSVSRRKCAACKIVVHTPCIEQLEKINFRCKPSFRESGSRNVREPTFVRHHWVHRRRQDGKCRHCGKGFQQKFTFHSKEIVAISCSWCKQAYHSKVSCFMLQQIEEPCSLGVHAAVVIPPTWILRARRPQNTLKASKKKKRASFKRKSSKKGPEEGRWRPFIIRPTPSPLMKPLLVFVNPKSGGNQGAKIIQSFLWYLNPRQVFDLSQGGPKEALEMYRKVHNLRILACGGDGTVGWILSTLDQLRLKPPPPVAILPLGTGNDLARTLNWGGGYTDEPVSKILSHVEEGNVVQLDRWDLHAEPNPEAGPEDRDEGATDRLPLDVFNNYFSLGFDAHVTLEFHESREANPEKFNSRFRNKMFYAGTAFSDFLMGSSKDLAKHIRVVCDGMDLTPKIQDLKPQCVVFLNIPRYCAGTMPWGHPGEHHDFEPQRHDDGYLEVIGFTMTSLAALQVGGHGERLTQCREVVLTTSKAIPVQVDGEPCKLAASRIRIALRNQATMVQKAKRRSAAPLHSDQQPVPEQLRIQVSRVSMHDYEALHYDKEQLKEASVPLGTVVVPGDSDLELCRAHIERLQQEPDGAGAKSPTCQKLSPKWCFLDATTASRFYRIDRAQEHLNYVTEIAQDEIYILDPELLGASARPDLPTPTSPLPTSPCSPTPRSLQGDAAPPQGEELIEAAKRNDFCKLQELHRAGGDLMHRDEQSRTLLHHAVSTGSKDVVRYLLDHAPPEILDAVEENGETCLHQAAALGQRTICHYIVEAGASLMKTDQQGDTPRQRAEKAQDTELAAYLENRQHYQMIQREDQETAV
DGKα, sequence (P23743 whole entry): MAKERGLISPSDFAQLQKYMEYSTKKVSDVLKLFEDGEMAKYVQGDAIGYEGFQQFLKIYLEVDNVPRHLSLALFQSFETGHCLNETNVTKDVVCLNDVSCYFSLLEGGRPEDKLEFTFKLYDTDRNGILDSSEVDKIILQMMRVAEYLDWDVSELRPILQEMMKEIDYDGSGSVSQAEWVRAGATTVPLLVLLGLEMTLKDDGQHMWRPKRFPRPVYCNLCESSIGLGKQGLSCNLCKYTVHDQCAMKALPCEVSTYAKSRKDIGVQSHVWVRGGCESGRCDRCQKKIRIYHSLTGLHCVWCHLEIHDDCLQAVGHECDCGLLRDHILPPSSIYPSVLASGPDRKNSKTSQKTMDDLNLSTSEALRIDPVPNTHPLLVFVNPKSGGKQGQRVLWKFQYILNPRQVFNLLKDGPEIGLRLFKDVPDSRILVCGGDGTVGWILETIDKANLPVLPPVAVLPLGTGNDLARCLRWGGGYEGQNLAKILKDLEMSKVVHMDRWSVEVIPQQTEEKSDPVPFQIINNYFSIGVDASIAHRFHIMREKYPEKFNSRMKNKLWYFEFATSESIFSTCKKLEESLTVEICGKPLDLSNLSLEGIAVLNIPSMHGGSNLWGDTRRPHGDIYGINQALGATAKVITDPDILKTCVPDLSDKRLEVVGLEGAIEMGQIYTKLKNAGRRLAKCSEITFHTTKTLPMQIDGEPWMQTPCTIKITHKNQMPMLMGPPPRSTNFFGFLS

In general, IC50 refers to the concentration that gives 50% inhibition. Consider `[2H]C([2H])([2H])c1cnc2ccc(C(C)N3C[C@H](C)N(c4cc(=O)n(C)c5cn(CC#N)nc45)C[C@H]3C)cc2n1` (stereo partly drawn) [Compound A313, 2-(7-((2S,5R)-2,5-dimethyl-4-(1-(3-(methyl-d3)quinoxalin-6-yl)ethyl)piperazin-1-yl)-4-methyl-5-oxo-4,5-dihydro-2H-pyrazolo[4,3-b]pyridin-2-yl)acetonitrile], for which the IC50 in test [1] was found to be 48 µM; in test [2], 0.041 µM.
Turning to `CC(c1ccc2ncc(C(F)(F)F)nc2c1)N1C[C@H](C)N(c2cc(=O)n(C)c3cn(CC#N)nc23)C[C@H]1C` (stereo partly drawn) [Compound A314, 2-(7-((2S,5R)-2,5-dimethyl-4-(1-(3-(trifluoromethyl)quinoxalin-6-yl)ethyl)piperazin-1-yl)-4-methyl-5-oxo-4,5-dihydro-2H-pyrazolo[4,3-b]pyridin-2-yl)acetonitrile], the values for the concentration for half-maximal inhibition (IC50) in test [1] and in test [2] were 84.3 µM and 0.689 µM, respectively.
Consider `CC(c1ccc2nc(C(F)(F)F)cnc2c1)N1C[C@H](C)N(c2cc(=O)n(C)c3cn(CC#N)nc23)C[C@H]1C` (stereo partly drawn) [Compound A315, 2-(7-((2S,5R)-2,5-dimethyl-4-(1-(2-(trifluoromethyl)quinoxalin-6-yl)ethyl)piperazin-1-yl)-4-methyl-5-oxo-4,5-dihydro-2H-pyrazolo[4,3-b]pyridin-2-yl)acetonitrile], for which the values for the IC50 in test [1] and in test [2] were 61 µM and 3.59 µM, respectively.
`Cc1nc2cc(C(C)N3C[C@H](C)N(c4cc(=O)n(C)c5cn(CC#N)nc45)C[C@H]3C)ccc2nc1O` (stereo partly drawn) [Compound A316, 2-(7-((2S,5R)-4-(1-(2-hydroxy-3-methylquinoxalin-6-yl)ethyl)-2,5-dimethylpiperazin-1-yl)-4-methyl-5-oxo-4,5-dihydro-2H-pyrazolo[4,3-b]pyridin-2-yl)acetonitrile]: the results for the concentration for half-maximal inhibition (IC50) in test [1] and in test [2] were 67 µM and over 10 µM, respectively.
Consider `Cc1cnc2ccc([C@H](C)N3C[C@H](C)N(c4c(F)c(=O)n(C)c5cn(CC#N)nc45)C[C@H]3C)cc2n1` [Compound A317, 2-(7-((2S,5R)-2,5-dimethyl-4-((S)-1-(3-methylquinoxalin-6-yl)ethyl)piperazin-1-yl)-6-fluoro-4-methyl-5-oxo-4,5-dihydro-2H-pyrazolo[4,3-b]pyridin-2-yl)acetonitrile], for which the results for the half-inhibitory concentration (IC50) in test [1] and in test [2] were 8.65 µM and 0.021 µM, respectively.
For the molecule `Cc1cnc2ccc([C@H](C)N3C[C@H](C)N(c4c(C#N)c(=O)n(C)c5cn(CC#N)nc45)C[C@H]3C)cc2n1` [Compound A318, 2-(cyanomethyl)-7-((2S,5R)-2,5-dimethyl-4-((S)-1-(3-methylquinoxalin-6-yl)ethyl)piperazin-1-yl)-4-methyl-5-oxo-4,5-dihydro-2H-pyrazolo[4,3-b]pyridine-6-carbonitrile], the half-maximal inhibitory concentration (IC50) in test [1] was determined as 6.49 µM; in test [2], 0.015 µM.
In the case of `Cc1cnc2ccc([C@H](C)N3C[C@H](C)N(c4nc(=O)n(C)c5cn(CC#N)nc45)C[C@H]3C)cc2n1` [Compound A319, 2-(7-((2S,5R)-2,5-dimethyl-4-((S)-1-(3-methylquinoxalin-6-yl)ethyl)piperazin-1-yl)-4-methyl-5-oxo-4,5-dihydro-2H-pyrazolo[4,3-d]pyrimidin-2-yl)acetonitrile], the half-maximal inhibitory concentration (IC50) was determined as 49.8 µM in test [1] and 0.023 µM in test [2].
Take `Cc1nc2cc(C(C)N3C[C@H](C)N(c4cc(=O)n(C)c5cn(CC#N)nc45)C[C@H]3C)ccc2s1` (stereo partly shown) [Compound A320]: the figures for the half-inhibitory concentration (IC50) in test [1] and in test [2] were 11.6 µM and 0.159 µM, respectively.
Turning to `CC(c1ccc2c(c1)OC1(CC1)CO2)N1C[C@H](C)N(c2cc(=O)n(C)c3cn(CC#N)nc23)C[C@H]1C` (stereo partly drawn) [Compound A323, 2-(7-((2S,5R)-4-(1-(3H-spiro[benzo[b][1,4]dioxine-2,1′-cyclopropan]-7-yl)ethyl)-2,5-dimethylpiperazin-1-yl)-4-methyl-5-oxo-4,5-dihydro-2H-pyrazolo[4,3-b]pyridin-2-yl)acetonitrile], the figures for the IC50 in test [1] and in test [2] were 10.7 µM and 0.007 µM, respectively.
The like results for `CC(c1ccc2c(n1)OCCO2)N1C[C@H](C)N(c2cc(=O)n(C)c3cn(CC#N)nc23)C[C@H]1C` (stereo partly drawn) [Compound A324, 2-(7-((2S,5R)-4-(1-(2,3-dihydro-[1,4]dioxino[2,3-b]pyridin-6-yl)ethyl)-2,5-dimethylpiperazin-1-yl)-4-methyl-5-oxo-4,5-dihydro-2H-pyrazolo[4,3-b]pyridin-2-yl)acetonitrile] were, in that order, over 150 µM and 4.02 µM.
On the same counts, the results for `CC(c1ccc2c(n1)OC(C)(C)CO2)N1C[C@H](C)N(c2cc(=O)n(C)c3cn(CC#N)nc23)C[C@H]1C` (stereo partly drawn) [Compound A325, 2-(7-((2S,5R)-4-(1-(3,3-dimethyl-2,3-dihydro-[1,4]dioxino[2,3-b]pyridin-6-yl)ethyl)-2,5-dimethylpiperazin-1-yl)-4-methyl-5-oxo-4,5-dihydro-2H-pyrazolo[4,3-b]pyridin-2-yl)acetonitrile] are 103 µM and 0.089 µM.
As to `CC[C@H]1CN(C(C)c2ccc(F)cc2C(C)OC)[C@H](CC)CN1c1cc(=O)n(C)c2cn(CC#N)nc12` (stereo partly drawn) [Compound A327, 2-(7-((2S,5R)-2,5-diethyl-4-(1-(4-fluoro-2-(1-methoxyethyl)phenyl)ethyl)piperazin-1-yl)-4-methyl-5-oxo-4,5-dihydro-2H-pyrazolo[4,3-b]pyridin-2-yl)acetonitrile], the IC50 in test [1] was over 150 µM; in test [2], 0.019 µM.
`CC(OC(F)F)c1cc(F)ccc1C(C)N1C[C@H](C)N(c2cc(=O)n(C)c3cn(CC#N)nc23)C[C@H]1C` (stereo partly drawn) [Compound A328, 2-(7-((2S,5R)-4-(1-(2-(1-(difluoromethoxy)ethyl)-4-fluorophenyl)ethyl)-2,5-dimethylpiperazin-1-yl)-4-methyl-5-oxo-4,5-dihydro-2H-pyrazolo[4,3-b]pyridin-2-yl)acetonitrile]: the IC50 in test [1] is 83 µM; in test [2] it was 0.143 µM.
The like results for `COC1(c2cc(F)ccc2C(C)N2C[C@H](C)N(c3cc(=O)n(C)c4cn(CC#N)nc34)C[C@H]2C)CC1` (stereo partly drawn) [Compound A329, 2-(7-((2S,5R)-4-(1-(4-fluoro-2-(1-methoxycyclopropyl)phenyl)ethyl)-2,5-dimethylpiperazin-1-yl)-4-methyl-5-oxo-4,5-dihydro-2H-pyrazolo[4,3-b]pyridin-2-yl)acetonitrile] were, in that order, over 150 µM and 0.091 µM.
On the same counts, the results for `CC(c1ccc2c(c1)C(F)(F)CCO2)N1C[C@H](C)N(c2cc(=O)n(C)c3cn(CC#N)nc23)C[C@H]1C` (stereo partly drawn) [Compound A331, 2-(7-((2S,5R)-4-(1-(4,4-difluorochroman-6-yl)ethyl)-2,5-dimethylpiperazin-1-yl)-4-methyl-5-oxo-4,5-dihydro-2H-pyrazolo[4,3-b]pyridin-2-yl)acetonitrile] are 31.8 µM and 0.046 µM.
On to `CC[C@@H]1CN(c2cc(=O)n(C)c3cn(CC#N)nc23)[C@@H](C)CN1C(c1ccc(F)cc1)c1ccc(C(F)(F)F)cn1` (stereo partly drawn) [Compound A332, 2-(7-((2S,5R)-5-ethyl-4-((4-fluorophenyl)(5-(trifluoromethyl)pyridin-2-yl)methyl)-2-methylpiperazin-1-yl)-4-methyl-5-oxo-4,5-dihydro-2H-pyrazolo[4,3-b]pyridin-2-yl)acetonitrile], for which the IC50 turned out to be 0.123 µM in test [1] and 0.169 µM in test [2].
On to `Cc1ccc(C(c2ccc(C)cc2)N2C[C@H](C)N(c3cc(=O)n(C)c4cn(CC#N)nc34)C[C@H]2C)cc1` [Compound A333], for which the half-inhibitory concentration (IC50) in test [1] stood at 10.6 µM; in test [2] it was 0.21 µM.
